Assay results as given in patent publication US12268690B2, “Treatments for mutations in acute myeloid leukemia” (OREGON HEALTH & SCIENCE UNIVERSITY, priority 2018, dated 2025).

Tested on: freshly isolated mononuclear cells from AML samples
Assay: Ex vivo functional drug screen (MTS viability, AUC) on primary AML samples, compared by mutation or clinical group
Assay type: cell-based, human
[1] = BCOR mutation alone or co-mutation of BCOR with DNMT3A or SRSF2

For `CNC(=O)c1cc(Oc2ccc(NC(=O)Nc3ccc(Cl)c(C(F)(F)F)c3)c(F)c2)ccn1` [Regorafenib], the “drug sensitivity mutant vs wild type (average difference in AUC; top left quadrant of volcano plot)” value (FLT3_ITD) was “regorafenib”, the “drug sensitivity mutant vs wild type (average difference in AUC; top left quadrant of volcano plot)” value (NPM1) was “Regorafenib” and the “drug sensitivity mutant vs wild type (average difference in AUC; top left quadrant of volcano plot)” value (NPM1:DNMT3A) was “Regorafenib”. For the same compound, the “drug sensitivity mutant vs wild type (average difference in AUC; top left quadrant of volcano plot)” value (NPM1:FLT3_ITD) was “regorafenib”, the “drug sensitivity mutant vs wild type (average difference in AUC; top left quadrant of volcano plot)” value (NPM1:FLT3_ITD:DNMT3A) was “regorafenib” and the “drug sensitivity mutant vs wild type (average difference in AUC; top left quadrant of volcano plot)” value (NPM1:IDH2) was “regorafenib”. The “drug sensitivity mutant vs wild type (average difference in AUC; top left quadrant of volcano plot)” value (NPM1:SRSF2) was “regorafenib” and the “drug sensitivity mutant vs wild type (average difference in AUC; top left quadrant of volcano plot)” value (NPM1:TET2: DNMT3A) was “Regorafenib”.
With `CC[C@H](CO)Nc1nc(NCc2ccccc2)c2ncn(C(C)C)c2n1` [Roscovitine] the “drug sensitivity mutant vs wild type (average difference in AUC; top left quadrant of volcano plot)” value (FLT3_ITD) was “roscovitine”, the “drug sensitivity mutant vs wild type (average difference in AUC; top left quadrant of volcano plot)” value (NPM1:IDH1) was “roscovitine” and the “drug sensitivity mutant vs wild type (average difference in AUC; top left quadrant of volcano plot)” value (ZRSR2) was “Roscovitine”.
`Cn1cc(-c2ccc3nnc(Sc4ccc5ncccc5c4)n3n2)cn1` [SGX-523, 6-((6-(1-methyl-1H-pyrazol-4-yl)-[1,2,4]triazolo[4,3-b]pyridazin-3-yl)thio)quinoline] was tested, and the “drug sensitivity mutant vs wild type (average difference in AUC; top left quadrant of volcano plot)” value (NPM1:CEBPA) was “SGX-523”, the “drug sensitivity mutant vs wild type (average difference in AUC; top left quadrant of volcano plot)” value (NPM1:IDH2) was “SGX-523” and the “drug sensitivity mutant vs wild type (average difference in AUC; top left quadrant of volcano plot)” value (NPM1:SRSF2) was “SGX-523”. The “drug sensitivity mutant vs wild type (average difference in AUC; top left quadrant of volcano plot)” value (NPM1:SRSF2:IDH2) was “SGX-523”.
`CC(C)(C)c1cnc(CSc2cnc(NC(=O)C3CCNCC3)s2)o1` [SNS-032] was tested, and the “drug sensitivity mutant vs wild type (average difference in AUC; top left quadrant of volcano plot)” value (ASXL1) was “SNS-032 (BMS-387032)” and the “drug sensitivity mutant vs wild type (average difference in AUC; top left quadrant of volcano plot)” value (NPM1) was “SNS-032”.
With `CNC(=O)c1cc(Oc2ccc(NC(=O)Nc3ccc(Cl)c(C(F)(F)F)c3)cc2)ccn1` [Sorafenib] the “drug sensitivity mutant vs wild type (average difference in AUC; top left quadrant of volcano plot)” value (DNMT3A) was “Sorafenib”, the “drug sensitivity mutant vs wild type (average difference in AUC; top left quadrant of volcano plot)” value (NPM1) was “Sorafenib” and the “drug sensitivity mutant vs wild type (average difference in AUC; top left quadrant of volcano plot)” value (NPM1:DNMT3A) was “Sorafenib”. For the same compound, the “drug sensitivity mutant vs wild type (average difference in AUC; top left quadrant of volcano plot)” value (NPM1:IDH2) was “sorafenib”, the “drug sensitivity mutant vs wild type (average difference in AUC; top left quadrant of volcano plot)” value (NPM1:SRSF2) was “sorafenib” and the “drug sensitivity mutant vs wild type (average difference in AUC; top left quadrant of volcano plot)” value (NPM1:TET2) was “Sorafenib”.
With `COc1cc2nccc(Oc3ccc(NC(=O)Nc4cc(C)on4)c(Cl)c3)c2cc1OC` [Tivozanib] the “drug sensitivity mutant vs wild type (average difference in AUC; top left quadrant of volcano plot)” value (CELSR2) was “Tivozanib (AV-951)”, the “drug sensitivity mutant vs wild type (average difference in AUC; top left quadrant of volcano plot)” value (FLT3_ITD) was “tivozanib” and the “drug sensitivity mutant vs wild type (average difference in AUC; top left quadrant of volcano plot)” value (NPM1) was “Tivozanib”. For the same compound, the “drug sensitivity mutant vs wild type (average difference in AUC; top left quadrant of volcano plot)” value (NPM1:FLT3_ITD) was “Tivozanib” and the “drug sensitivity mutant vs wild type (average difference in AUC; top left quadrant of volcano plot)” value (NPM1:FLT3_ITD:DNMT3A) was “tivozanib”.
With `C[C@@H]1CCN(C(=O)CC#N)C[C@@H]1N(C)c1ncnc2[nH]ccc12` [Tofacitinib] the “sensitivity to JAK kinase inhibitors, mutant versus wild type (average AUC difference, one-way ANOVA)” value [1] was “no difference in sensitivity”, the “drug sensitivity mutant vs wild type (average difference in AUC; top left quadrant of volcano plot)” value (ZRSR2) was “Tofacitinib” and the “sensitivity to JAK kinase inhibitors, mutant versus wild type (average AUC difference, one-way ANOVA)” value (co-mutation of BCOR with RUNX1) was “increased sensitivity”.
For `Cc1cc(Nc2cc(N3CCN(C)CC3)nc(Sc3ccc(NC(=O)C4CC4)cc3)n2)[nH]n1` [Tozasertib], the “drug sensitivity mutant vs wild type (average difference in AUC; top left quadrant of volcano plot)” value (FLT3_ITD) was “Tozasertib”, the “drug sensitivity mutant vs wild type (average difference in AUC; top left quadrant of volcano plot)” value (FLT3_ITD:DNMT3A) was “tozasertib” and the “drug sensitivity mutant vs wild type (average difference in AUC; top left quadrant of volcano plot)” value (FLT3_ITD_IHD2) was “tozasertib”. The “drug sensitivity mutant vs wild type (average difference in AUC; top left quadrant of volcano plot)” value (IDH2) was “Tozasertib”, the “drug sensitivity mutant vs wild type (average difference in AUC; top left quadrant of volcano plot)” value (NPM1:FLT3_ITD:DNMT3A) was “tozasertib” and the “drug sensitivity mutant vs wild type (average difference in AUC; top left quadrant of volcano plot)” value (NPM1:SRSF2) was “Tozasertib”.
`CCS(=O)(=O)O.COC(=O)c1ccc2c(c1)NC(=O)/C2=C(\Nc1ccc(N(C)C(=O)CN2CCN(C)CC2)cc1)c1ccccc1` [Vargetef] was tested, and the “drug sensitivity mutant vs wild type (average difference in AUC; top left quadrant of volcano plot)” value (FLT3_ITD) was “vargetef”, the “drug sensitivity mutant vs wild type (average difference in AUC; top left quadrant of volcano plot)” value (FLT3_ITD:DNMT3A) was “vargetef” and the “drug sensitivity mutant vs wild type (average difference in AUC; top left quadrant of volcano plot)” value (FLT3_ITD:FLT3) was “vargetef”. The “drug sensitivity mutant vs wild type (average difference in AUC; top left quadrant of volcano plot)” value (FLT3_ITD:TET2) was “vargetef”, the “drug sensitivity mutant vs wild type (average difference in AUC; top left quadrant of volcano plot)” value (FLT3_ITD:TET2:DNMT3A) was “Vargetef” and the “drug sensitivity mutant vs wild type (average difference in AUC; top left quadrant of volcano plot)” value (FLT3_ITD_IHD2) was “vargetef”. The “drug sensitivity mutant vs wild type (average difference in AUC; top left quadrant of volcano plot)” value (IDH2) was “Vargetef”, the “drug sensitivity mutant vs wild type (average difference in AUC; top left quadrant of volcano plot)” value (NPM1) was “Vagetef” and the “drug sensitivity mutant vs wild type (average difference in AUC; top left quadrant of volcano plot)” value (NPM1:FLT3_ITD) was “vargetef”. The “drug sensitivity mutant vs wild type (average difference in AUC; top left quadrant of volcano plot)” value (NPM1:FLT3_ITD:DNMT3A) was “vargetef”, the “drug sensitivity mutant vs wild type (average difference in AUC; top left quadrant of volcano plot)” value (NPM1:FLT3_ITD:TET2) was “vargetef” and the “drug sensitivity mutant vs wild type (average difference in AUC; top left quadrant of volcano plot)” value (NPM1:IDH2) was “Vargetef”. For the same compound, the “drug sensitivity mutant vs wild type (average difference in AUC; top left quadrant of volcano plot)” value (NPM1:SRSF2) was “Vargetef” and the “drug sensitivity mutant vs wild type (average difference in AUC; top left quadrant of volcano plot)” value (NPM1:TET2: DNMT3A) was “Vargetef”.
`Clc1ccc(Nc2nnc(Cc3ccncc3)c3ccccc23)cc1` [Vatalanib] was tested, and the “drug sensitivity mutant vs wild type (average difference in AUC; top left quadrant of volcano plot)” value (FLT3_ITD) was “vatalanib”, the “drug sensitivity mutant vs wild type (average difference in AUC; top left quadrant of volcano plot)” value (FLT3_ITD:ASXL1) was “vatalanib” and the “drug sensitivity mutant vs wild type (average difference in AUC; top left quadrant of volcano plot)” value (MLLT3.KMT2A) was “Vatalanib”. The “drug sensitivity mutant vs wild type (average difference in AUC; top left quadrant of volcano plot)” value (NPM1:FLT3_ITD) was “vatalanib” and the “drug sensitivity mutant vs wild type (average difference in AUC; top left quadrant of volcano plot)” value (SMC1A) was “Vatalanib”.
With `CS(=O)(=O)c1ccc(C(=O)Nc2ccc(Cl)c(-c3ccccn3)c2)c(Cl)c1` [Vismodegib] the “drug sensitivity mutant vs wild type (average difference in AUC; top left quadrant of volcano plot)” value (WT1) was “Vismodegib”.
With `O=c1[nH]c(-c2ccc(C(F)(F)F)cc2)nc2c1CSCC2` [XAV-939, 3,5,7,8-Tetrahydro-2-[4-(trifluoromethyl)phenyl]-4H-thiopyrano[4,3-d]pyrimidin-4-one] the “drug sensitivity mutant vs wild type (average difference in AUC; top left quadrant of volcano plot)” value (BCOR) was “XAV-939”, the “drug sensitivity of mutant cases” value (BCOR mutation alone) was “did show sensitivity” and the “drug sensitivity mutant vs wild type (average difference in AUC; top left quadrant of volcano plot)” value (BCOR:ASXL1) was “XAV-939”. For the same compound, the “drug sensitivity mutant vs wild type (average difference in AUC; top left quadrant of volcano plot)” value (BCOR:DNMT3A) was “XAV-939” and the “drug sensitivity mutant vs wild type (average difference in AUC; top left quadrant of volcano plot)” value (BCOR:SRSF2) was “XAV-939”.
With `C=CC(=O)Nc1cc2c(Nc3ccc(F)c(Cl)c3)ncnc2cc1OCCCN1CCOCC1` [canertinib] the “drug sensitivity mutant vs wild type (average difference in AUC; top left quadrant of volcano plot)” value (FLT3_ITD) was “canertinib”, the “drug sensitivity mutant vs wild type (average difference in AUC; top left quadrant of volcano plot)” value (FLT3_ITD:TET2) was “canertinib” and the “drug sensitivity mutant vs wild type (average difference in AUC; top left quadrant of volcano plot)” value (FLT3_ITD_IHD2) was “canertinib”. The “drug sensitivity mutant vs wild type (average difference in AUC; top left quadrant of volcano plot)” value (NPM1:FLT3_ITD) was “canertinib” and the “drug sensitivity mutant vs wild type (average difference in AUC; top left quadrant of volcano plot)” value (SMC1A) was “canertinib”.
In the case of `N#CCNC(=O)c1ccc(-c2ccnc(Nc3ccc(N4CCOCC4)cc3)n2)cc1` [cyt387], the “sensitivity to JAK kinase inhibitors, mutant versus wild type (average AUC difference, one-way ANOVA)” value [1] is reported as “no difference in sensitivity”, the “drug sensitivity mutant vs wild type (average difference in AUC; top left quadrant of volcano plot)” value (FLT3_ITD) is reported as “cyt387” and the “drug sensitivity mutant vs wild type (average difference in AUC; top left quadrant of volcano plot)” value (NPM1:FLT3_ITD) is reported as “cyt387”. The “sensitivity to JAK kinase inhibitors, mutant versus wild type (average AUC difference, one-way ANOVA)” value (co-mutation of BCOR with RUNX1) was “increased sensitivity”.
For `CN(NC(=O)CC(=O)NN(C)C(=S)c1ccccc1)C(=S)c1ccccc1` [elesclemol], the “drug sensitivity of mutant cases” value (TP53 mutant cases) was “trended more sensitive”.
